Legend:
[1] = tested on: human retinal endothelial cells (HREC); experiment: Testing 7: VEGF-induced HREC proliferation (MTS assay), integrin antagonists and Lucentis alone and in combination; assay type: cell-based; conditions: study II; compound 1 nM; Lucentis 1 ng/mL
Method: HREC were first cultured overnight in a 96-well plate coated with fibronectin. The next day medium containing different agents as shown in Tables 14 and 15 was pre-incubated for 1 hour before being added into appropriate wells. The cells were cultured at 37° C., 5% CO2, and 95% humidity for another 3 days. After that, cell proliferation was estimated by the MTS assay. In the first study we used VEGF 10 ng/mL (about EC80 in study PH08169), Lucentis® 1 ng/mL (about EC25 in study PH09038) and 5 doses of BOL-303055-X. Normal IgG (1 ng/ml) was also added to groups containing no Lucentis®. All groups contained the same amount of 0.1% DMSO. In the second study, all five compounds (BOL-303049-X, BOL-303050-X, BOL-303051-X, BOL-303054-X and BOL-303055-X) were tested at 1 nM with other conditions remaining the same.
A 96-well plate was coated with human fibronectin (10 μg/mL) for 5 hours at 37° C. HREC were washed with HBSS buffer once, tripsinized and re-suspended in 10% FBS CS-C medium at 18,000 cells/mL. Cells (200 μL) were added to the plate and cultured overnight at 37° C., 5% CO2, and 95% humidity. Next day, the cells were serum-starved for 2 hours.
For study I, VEGF at 10 ng/mL, Lucentis® at 1 ng/mL and BOL-303055-X at 0.1, 0.3, 1, 3 and 10 nM were prepared in 1% FBS CS medium as shown in Table 14. Normal IgG (1 ng/mL) were added to groups containing no Lucentis®. All medium solutions were incubated for 1 hour at 37° C. After carefully medium was aspirated, 200 μL of the medium containing different agents were then added into appropriate wells. The cells were cultured for another 3 days. For the study II as shown in the Table 15, five compounds were tested at 1 nM with other conditions remaining the same as study I.
(§1) At the end of incubation, the medium was carefully aspirated from cells and 120 μl of MTS working solution was added into all wells including blank wells (without cells). The plates were incubated at 37° C., 5% CO2, and 95% humidity for 1 hour and then read by a plate reader at 490 nm wavelength.
Median optical density (OD) was generated from different groups. Data were expressed as mean±SEM of the OD values. Statistical analysis was performed using three-way ANOVA after Box-Cox transformations, and p<0.05 was considered statistically significant. To evaluate whether the effects of the combinations were either synergistic or additive, net inhibitions were calculated by subtracting the basal levels in the presence of VEGF from the individual treatments (Lucentis® and Integrin blockers) and the combinations. […] Data analysis was performed utilizing the statistical analysis software JMP (SAS Institute, Cary, N.C.).

[2] = tested on: human retinal endothelial cells (HREC); experiment: PMA-induced HREC network formation in fibrin gel; assay type: cell-based; conditions: PMA 25 ng/mL, vs PMA control
Method: Prior to the start of the experiment, HREC from Cell Systems were cultured in flask in CS-C complete medium. The tube formation assay was performed in a 96-well plate pre-coated with fibrin gel. HREC were collected from flasks and re-suspended 1% FBS EBM-2 medium. Cells were pre-incubated with the integrin antagonists, echistatin or vehicle control for 30 min before loading onto the fibrin gel. Images were taken at 9 h.
Thrombin solution and fibrinogen solutions were allowed to thaw at room temperature and 37° C. water bath, respectively. Fibrinogen solution at 30 μL was added into the desired number of wells in a 96-well plate. Plate was gently shaken to ensure uniform coverage of fibrinogen solution in the well. Thrombin at 20 μL was added into each well. The plate was gently shaken immediately to ensure the thrombin was mixed well with fibrinogen. The plate was placed at 37° C. overnight to allow the fibrin gel to polymerize.
HREC were trypsinized at about 80% confluence and counted by standard hemocytometer methods. After deactivating trypsin with 5 mL of 10% FBS EBM-2 medium, the cells were centrifuged (800 rpm, 8 min) and re-suspended at 2×10^5 cells/mL in 1% FBS EBM-2 medium
Cells were pre-incubated with integrin compounds or echistatin at 37° C., 5% CO2, and 95% humidity for 30 minutes before mixing with PMA medium. The final concentrations of all agents are shown in the design table. The 100 μL of the cell mixture was added onto the gel and cells were cultured at 37° C., 5% CO2, and 95% humidity. Images were taken at different time points.
The network formation scoring system (a five point-scale)
Each well in one group was given a score and then averaged. Data were expressed as mean±SEM of network formation scores. Statistical analysis was performed using a one-way ANOVA-Dunnett's test in raw data, and p<0.05 was considered statistically significant. Data analysis was performed using statistical analysis software JMP (SAS Institute, Cary, N.C.).

[3] = Ocular clinical findings in rats 14 days after intravitreal injection; conditions: for Intraocular inflammation and retinal vascular congestion: Day 14 after intravitreal injection
Method: The anterior segment of the eye was examined using a slit-lamp biomicroscopy for excluding any animals with abnormalities that might interfere with the study. Fundus photography and fluorescein angiography (FA) were performed to document the health of the retina and the ocular circulation using a TRC 50EX fundus camera (Topcon). For FA, 10% sodium fluorescein was injected intravenously (50 mg/kg of body weight) through the tail vein or the vein under the incisor before the procedure.
Immediately after placement of laser photocoagulation, the experimental eyes received an intravitreal injection of either a compound or a vehicle as described in Table 5. Following the disinfection of ocular surface with 5% betadine and 0.9% saline solutions, the injections were performed with aid of a surgical microscope using 0.3 mL syringes with a 31-gauge ½-inch long needle (Ultra-Fine II™ Insulin syringe, BD, Franklin Lakes, N.J.).
Two weeks after photocoagulation, all rats were examined under anesthesia and pupil dilation with slit-lamp biomicroscopy, fundus photography and FA as described in the baseline examination.

[4] = tested on: laser-induced CNV in rats; experiment: Laser-induced choroidal neovascularization in rats (CNV area, fluorescein angiography grades); assay type: in vivo, Brown Norway rats; conditions: day 14, 200 μg/eye (echistatin 5 μg, Avastin 125 μg); for Number of lesions in FA grade 1 / Number of lesions in FA grade 2 / Number of lesions in FA grade 3 / Number of lesions in FA grade 4: unobstructed lesions
Method: Fifty six male Brown Norway rats, approximately 200-300 grams of body weight and two months of age, were used in this study. This study was performed in two cohorts and only one eye of each rat was used.
The pupils were dilated and then the rats were anesthetized as described in baseline examination. The rats were positioned in front of a slit lamp system (Haag-Streit USA, Mason, Ohio). […] A diode laser (OcuLight TX, IRIDEX, Mountain View, Calif.) was used for photocoagulation (532 nm wavelength, 120 mW power, 50 μm spot size and 0.05 seconds duration). For each right eye, a series of six photocoagulation sites were concentrically placed between the major retinal vessels at equal distance (about two optic discs) around the optic nerve head. […] If a significant retinal or subretinal hemorrhage occurred during the laser photocoagulation, then the left eye was be photocoagulated and used as the experimental eye.
Grade 1 lesions had no hyperfluorescence.
The eyes were collected on day 14 and immediately fixed in 4% paraformaldehyde in PBS (pH 7.4) for one and half hours, and then transferred into cold PBS and kept at 4° C. for further processing.
The incubation was performed in a humidified dark chamber with gentle rotation at 4° C. overnight. On the second day, the retinal pigment epithelium (RPE)-choroidsclera complexes were washed with cold IHC buffer, mounted with ProLong® Gold antifade reagent, covered with circular cover glass, and sealed with clear nail polish. Fluorescent images were collected with a confocal microscope (FluoView FV 1000 confocal microscope, Olympus, Center Valley, Pa.) and a 4×, 0.16 numerical aperture objective lens. […] The laser sites were identified by merging images of the green (phalloidin labeling RPE) and the red (isolectin IB4 labeling CNV) channels. CNV complexes were identified using the red channel (isolectin), and their areas were quantified using the FluoView software (Version 1.7a).
Average FA scores and areas of CNV complexes in each group were presented as mean±SEM, unless otherwise indicated. They were analyzed using a one-way ANOVA followed by a Tukey-Kramer test after Box-Cox transformations. All statistics were performed utilizing the statistical analysis software JMP (SAS Institute, Cary, N.C.). p values ≦0.05 were considered statistically significant.

[5] = tested on: human retinal endothelial cells (HREC); experiment: Testing 5: VEGF-induced HREC proliferation (MTS assay), echistatin and Avastin alone and in combination; assay type: cell-based; conditions: echistatin 2 nM
Method: HREC were first cultured overnight in a 96-well plate coated with fibronectin. The next day, cells were serum-starved for 2 h before treatment. Medium containing different agents as shown in table below was pre-incubated for 1 h before being added to cells. The cells were cultured at 37° C., 5% CO2, and 95% humidity for another 3 days. After that, cell proliferation was estimated by the MTS assay. […] Normal human IgG was also added to different groups in such a way that all groups contained the same amounts of IgG protein.
A 96-well plate was coated with human fibronectin (10 μg/mL) for 5 hours. HREC were collected from flasks by EDTA-trypsin treatment and re-suspended in 10% FBS CS-C medium at 15,000 cells/mL. Cells (200 μL) were added to the plate and cultured overnight at 37° C., 5% CO2, and 95% humidity. Next day, the medium was removed and 200 μl/well serum free medium was added.
All medium solutions were incubated for 1 h at 37° C. After carefully aspirating the medium from cells, […], of the medium containing the different agents was added into appropriate wells. The cells were cultured for another 3 days.
as §1, with “plate was” for “plates were”, “then absorbance was” for “then”
Median optical density (OD) was generated from different groups. Data were expressed as mean±SEM of the OD values. Statistical analysis was performed using a one or two-way ANOVA using Box-Cox transformed data if needed, and P<0.05 was considered statistically significant. […] All the data from the individual wells were fitted to a re-parameterized four-parameter logistic equation to obtain IC50 using similar methodology as that previously described and utilizing the statistical analysis software JMP (SAS Institute, Cary, N.C.).

[6] = Day 14, 200 μg/eye intravitreal
[7] = one intravitreal injection after laser

Row | Eyes with anterior chamber inflammation/Total eyes [3, 6] | Eyes with retinal vascular congestion/vessel-observable eyes [3, 6] | Compound | Combination effect with Lucentis on VEGF-induced HREC proliferation (synergistic/additive) [1] | Inhibition of PMA-induced HREC network formation in fibrin gel ([2]; 1 nM) | Inhibition of PMA-induced HREC network formation in fibrin gel ([2]; 10 nM) | Posterior synechiae of iris [3, 6] | Intraocular inflammation and retinal vascular congestion [3] | Number of lesions in FA grade 1 [4] | Number of lesions in FA grade 2 [4] | Number of lesions in FA grade 3 [4] | Number of lesions in FA grade 4 [4] | Mean score of fluorescein leakage (FA score) compared to vehicle-treated controls [4, 7] | Cataract formation ([3]; Day 14, echistatin 5 μg/eye intravitreal) | CNV area / development of CNV on isolectin IB4-labeled flat mounts compared to vehicle-treated controls [4, 7] | Enhancement of Avastin potency [5] | Inhibition of VEGF-induced HREC proliferation, agent alone ([5]; Avastin 0.625-10 ng/ml (significant at 10 ng/ml), VEGF 10 ng/mL) | HREC proliferation under basal conditions ([5]; Avastin 0.625-10 ng/ml, no VEGF) | Combination effect with Avastin on VEGF-induced HREC proliferation (synergistic/additive) ([5]; Avastin 0.625 to 10 ng/ml)
1 | 6/6 | 1/1 | COc1ccc(CCOC(=O)N[C@@H](CNc2nc(C)nc(N3CCC(c4ccc5c(n4)NCCC5)CC3)c2C)C(=O)O)cc1 [BOL-303049-X] | synergistic effect | significantly inhibited | significantly inhibited | Posterior synechiae of iris occurred in several eyes | most severe inflammation | 0 | 0 | 0 | 0 |  |  |  |  |  |  | 
2 | 3/6 | 0/4 | Cc1nc(NC[C@H](NC(=O)OCC2CCCCC2)C(=O)O)c(C)c(N2CCC(c3ccc4c(n3)NCCC4)CC2)n1 [BOL-303051-X] | additive effects | significantly inhibited | significantly inhibited |  |  | 2 | 3 | 9 | 10 | smaller means |  |  |  |  |  | 
3 |  |  | CC1(C)O[C@@H]2C[C@H]3[C@@H]4CCC5=CC(=O)C=C[C@]5(C)[C@@]4(F)[C@@H](O)C[C@]3(C)[C@]2(C(=O)CO)O1 [TA, triamcinolone acetonide, reference compound] |  |  |  |  | no intraocular inflammation and retinal vascular congestion was recorded | 3 | 11 | 4 | 0 |  |  |  |  |  |  | 
4 |  |  | Echistatin [reference compound] |  |  | significantly inhibited |  | no intraocular inflammation and retinal vascular congestion was recorded | 0 | 12 | 3 | 2 | smaller means | Two eyes treated with echistatin developed cataract | smaller area of CNV | approximately 1.6 fold | not statistically significant | significantly inhibited | additive effects

From patent publication US20110189174A1, “COMPOSITIONS AND METHODS FOR TREATING, REDUCING, AMELIORATING, ALLEVIATING, OR INHIBITING PROGRESSION OF, PATHOGENIC OCULAR NEOVASCULARIZATION” (priority 2010, published 2011)
